Data published in patent publication US20090186839A1, “Model for studying the role of genes in chemoresistance” (Cold Spring Harbor Laboratory, priority 2003, published 2009).
Where two headings read alike, the source gives them in different places.

How the values were obtained:
HeLa cells = assay: [35S]-methionine incorporation into proteins (translation inhibition), 1 h incubation; type: cell-based; conditions: read-out: IC50, inhibition of [35S]-methionine incorporation into proteins
Method: Results are the average of three experiments with standard error of the mean shown.
(§1) The ability of rocaglates to induce apoptosis and inhibit protein synthesis was investigated. […] Jurkat cells were exposed to silvestrol or FA and translation inhibition and apoptosis induction were monitored. Translation initiation was measured as the inhibition of [^35S]-methionine incorporation into proteins in a dose-dependent manner. Apoptosis induction was measured as the percentage of tagged living cells measured by flow cytometry and expressed relative to vehicle treated cells.
For translation inhibition experiments, HeLa cells were incubated for 1 h with 10 μM anisomycin, 5 μM of the peptide FMRFA, 0.4 μM silvestrol, or vehicle (MeOH). Cells were then washed with PBS, and incubated with media lacking compound for the indicated times. Ten minutes before harvesting, [^35S]-methionine was added to the culture. The rate of [^35S]-methionine incorporation into TCA-insoluble material was measured and was expressed relative to vehicle (MeOH) treated cells.

Jurkat cells [1] = assay: [35S]-methionine incorporation rate after 13 h silvestrol; type: cell-based; conditions: Homo sapiens, 13 h incubation, read-out: IC50, inhibition of protein synthesis
Method: (§2) Jurkat cells were incubated with the indicated silvestrol concentrations for 13 h after which time the rate of [^35S]-methionine incorporation or the percentage of living cells was measured. [^35S]-methionine was added 10 minutes before the end of the incubation period and the rate of incorporation is expressed relative to vehicle (MeOH) treated cells. Results are the average of two experiments with the error of the mean shown. The percentage of living cells was determined by flow cytometry following staining of the cells with Annexin V and propidium iodide. The percentage of living cells is expressed relative to vehicle (MeOH) treated and the results are the average of three experiments with the error of the mean shown.
Jurkat cells were incubated with the indicated silvestrol concentrations for 13 h after which time the rate of [^35S]-methionine incorporation or the percentage of living cells was measured. [^35S]-methionine was added 10 min. before the end of the incubation period and the rate of incorporation is measured relative to vehicle (MeOH) treated cells. The percentage of living cells was determined by flow cytometry following staining of the cells with Annexin V and propidium iodide. Silvestrol induced apoptosis in 50% of Jurkat cells following 13 hr exposure (FIG. 27). […]

Jurkat cells [2] = assay: Apoptosis / living cells by flow cytometry (Annexin V, propidium iodide); type: cell-based; conditions: 13 hr exposure, concentration not given
Method: as §2, with “The percentage of living cells is expressed relative to vehicle (MeOH) treated and the results are the average of three experiments with the error of the mean shown.” left out
as §1
Jurkat cells were incubated with the indicated silvestrol concentrations for 13 h after which time the rate of [^35S]-methionine incorporation or the percentage of living cells was measured. [^35S]-methionine was added 10 min. before the end of the incubation period and the rate of incorporation is measured relative to vehicle (MeOH) treated cells. […]

eIF4A = eIF4A (Homo sapiens, UniProt P60842); assay: Cross-linking experiments, eIF4A binding to mRNA; type: biochemical; conditions: data not shown
eIF4A, sequence (P60842 whole entry, species assumed): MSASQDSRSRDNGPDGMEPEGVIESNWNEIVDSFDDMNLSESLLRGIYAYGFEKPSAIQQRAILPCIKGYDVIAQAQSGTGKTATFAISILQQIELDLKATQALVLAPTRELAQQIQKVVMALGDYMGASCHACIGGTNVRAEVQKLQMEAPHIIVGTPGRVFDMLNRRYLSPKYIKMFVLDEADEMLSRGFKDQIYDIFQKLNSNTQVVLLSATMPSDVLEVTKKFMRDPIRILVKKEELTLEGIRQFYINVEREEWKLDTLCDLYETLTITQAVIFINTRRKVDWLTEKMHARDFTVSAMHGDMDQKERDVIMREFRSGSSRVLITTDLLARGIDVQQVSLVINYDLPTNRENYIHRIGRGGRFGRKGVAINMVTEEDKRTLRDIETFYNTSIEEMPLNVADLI
From the text: Inhibition of translation initiation induces apoptosis (Li et al., 2002, Mol. Cell. Biol. 22, 2853-2861; Polunovsky et al., 2000, J. Biol. Chem. 275, 24776-24780), although the precise mechanism by which this event is triggered is not fully understood. One hypothesis is that changes in the levels or activity of eIF4F mediate the translational regulation of specific genes involved in survival and apoptosis. Gene specific translational control is thought to be mediated by the amount of secondary structure within the 5′ untranslated regions of mRNAs which dictates the eIF4Ac-requirement for ribosome recruitment (Svitkin et al., 2001, RNA 7, 382-394).

Eμ-Myc/eIF4E lymphomas = assay: In vivo chemotherapy of mice bearing eIF4E lymphomas; parameters: species or system mouse; conditions: for animals that had developed terminal lymphoma / reversal of DXR resistance / sensitization to DXR: Eμ-Myc/eIF4E tumors, silvestrol 0.2 mg/kg daily 5 days i.p.; for animals that had developed terminal lymphoma: by the 40 day time point, DXR once 10 mg/kg
From the text: A ‘complete remission’ (CR) was defined as absence of any palpable tumor and the absence of leukemia, as examined by blood smears. ‘Tumor free survival’ was defined as the time between treatment and reappearance of a well-palpable lymphoma (Schmitt, C. A., et al., “Genetic analysis of chemoresistance in primary murine lymphomas,” Nat. Med. 6: 1029-1035 (2000)). ‘Overall survival’ was defined as the time between treatment and progression to a terminal stage at which the animals were sacrificed. Tumor free and overall survival data were analyzed in the Kaplan-Meier format using the log-rank (Mantel-Cox) test for statistical significance. Whole body fluorescence imaging of living animals was performed as described (Schmitt, C. A., et al., “Dissecting p53 tumor suppressor functions in vivo,” Cancer Cell 1: 289-298 (2002) and Yang, M., et al., “Whole-body optical imaging of green fluorescent protein-expressing tumors and metastases.” Proc. Natl. Acad. Sci. USA 97: 1206-1211 (2000)).
Doxorubicin (Sigma) and cyclophosphamide (Sigma) were dissolved in saline. In treatment studies, control lymphomas were ARF-null tumors arising in an Eμ-myc/ARF−/− background (Schmitt, C. A., et al., “INK4a/ARF mutations accelerate lymphomagenesis and promote chemoresistance by disabling p53,” Genes Dev. 13: 2670-2677 (1999)).
Primary tumors arising in Eμ-Myc/eIF4E mice were harvested and a total of 2×10^6 secondary lymphoma cells were injected into the tail veins of 6-8 week old female C57BL/6 (non-transgenic) mice. Upon tumor formation of palpable secondary tumors, mice were treated with i.p. administration of drug. The treatment schedule included an injection with DXR (once at 10 mg/kg), silvestrol (0.2 mg/kg daily for 5 days) or various combinations. DXR and silvestrol were diluted in 5.2% PEG400/5.2% Tween 80 immediately prior to i.p. injection. In combination studies, silvestrol was administered once daily for 5 consecutive days, with DXR administered on day 2. Mice were then palpated regularly and monitored for the disappearance or recurrence of tumors.
Data are presented as Kaplan-Meier plots using the log-rank (Mantel-Cox) test for statistical significance (SigmaStat software) in FIG. 29, showing the tumor free survival/time to relapse, and FIG. 30, showing the overall survival/time. Time to relapse for mice that were never tumor free was scored as ‘0’ days. Tumor free survival was defined as the time between treatment and reappearance of a palpable lymphoma. Overall survival was defined as the time between treatment and progression to a terminal stage at which the animals were sacrificed. […] With either compound alone, approximately 80% of the animals had developed terminal lymphoma by the 40 day time point. With a combination treatment of silvestrol and DXR, less than 30% of the animals had developed terminal lymphoma by the end test point, well over 60 days.

Eμ-myc/PTEN+/− tumors = assay: In vivo chemotherapy of mice bearing PTEN+/− lymphomas; parameters: species or system mouse; conditions: for reversal of DXR resistance / sensitization to DXR: RAP 4 mg/kg, silvestrol 0.2 mg/kg daily 5 days i.p.
Method: Primary tumors arising in Eμ-myc/PTEN+/− and Ep-myc/PTEN+/− mice were harvested and injected into C57BL/6 (non-transgenic) mice. Upon tumor formation of palpable secondary tumors, mice were treated with a single i.p. administration of drug. The treatment schedule included an injection with either DXR ([…] in 0.9% saline), CTX (300 mg/kg in 0.9% saline), RAP (4 mg/kg in 0.9% H2O with 5% PEG/TWEEN), or a combination thereof (d1: DXR or CTX, d2: DXR or CTX and RAP, d3-5: DXR pr CTX). Mice were then palpated twice weekly for disappearance or recurrence of tumors. Data are presented as Kaplan-Meier plots in FIG. 19, and show the tumor free survival/time to relapse. Time to relapse for mice that were never tumor free was scored as ‘0’ days. […] The bottom panel has an equivalent analysis for treatment with CTX, RAP, and RAP+CTX combination.
Primary tumors arising in PTEN+/−Eμ-Myc mice were harvested and a total of 2×10^6 secondary lymphoma cells were injected into the tail veins of 6-8 week old female C57BL/6 (non-transgenic) mice. Upon tumor formation of palpable secondary tumors, mice were treated with i.p. administration of drug. The treatment schedule included an injection with DXR (once at 10 mg/kg), RAP (4 mg/kg daily for 5 days), or silvestrol (0.2 mg/kg daily for 5 days). RAP, DXR, and silvestrol were diluted in 5.2% PEG400/5.2% Tween 80 immediately prior to i.p. injection.
The ability of rocaglates to work in synergistic combination with other cytotoxic agents has not previously been tested. Silvestrol was therefore tested in combination with DXR, where silvestrol or RAP were administered once daily for 5 consecutive days, with DXR administered on day 2. Mice were then palpated twice weekly for the disappearance or recurrence of tumors.
Data are presented as Kaplan-Meier plots using the log-rank (Mantel-Cox) test for statistical significance (SigmaStat software) in FIG. 28, and show the tumor free survival/time to relapse. Time to relapse for mice that were never tumor free was scored as ‘0’ days. […]

Eμ-myc/Akt lymphomas = assay: In vivo chemotherapy of mice bearing Akt lymphomas; parameters: species or system mouse
From the text: (§3) Tumor cells were transplanted from the Akt-expressing tumors and from control tumors (Eμ-myc, arf^−/−, p53^+/+) into syngeneic, non-transgenic 6-10 week old C57BL/6 mice by tail vein injection [10^6 viable lymphoma cells in phosphate-buffered saline (PBS)] and recipient mice were monitored for tumor formation twice a week by palpation of the pre-scapular and cervical lymph-nodes. […] Following treatments, mice were monitored for immediate response and time to relapse by lymph node palpation and by blood smears (by tail artery bleeding) stained according to a modified Wright's protocol using the LeukoStat kit (Fisher Scientific, Pittsburgh, Pa.). The data were statistically evaluated.

[3] = system: Eμ-myc/ARF−/− control lymphomas; assay: In vivo chemotherapy of mice bearing control (ARF-null) lymphomas; parameters: species or system mouse; conditions: CTX 300 mg/kg i.p.
From the text: as §3
A ‘complete remission’ (CR) was defined as absence of any palpable tumor and the absence of leukemia, as examined by blood smears. ‘Tumor free survival’ was defined as the time between treatment and reappearance of a well-palpable lymphoma (Schmitt, C. A., et al., “Genetic analysis of chemoresistance in primary murine lymphomas,” Nat. Med. 6: 1029-1035 (2000)). ‘Overall survival’ was defined as the time between treatment and progression to a terminal stage at which the animals were sacrificed. Tumor free and overall survival data were analyzed in the Kaplan-Meier format using the log-rank (Mantel-Cox) test for statistical significance. […]

COC(=O)[C@H]1[C@@H](O)[C@@]2(O)c3c(OC)cc(O[C@@H]4O[C@@H]([C@H](O)CO)CO[C@H]4OC)cc3O[C@@]2(c2ccc(OC)cc2)[C@@H]1c1ccccc1 [silvestrol]
IC50 (HeLa cells; Homo sapiens, HeLa, 1 h): 0.02 µM | IC50 (Jurkat cells [1]): 0.001 µM | cells in which apoptosis was induced (Jurkat cells [2]): 50% | effect on ability of eIF4A to bind mRNA (eIF4A): stimulate the ability of eIF4A to bind mRNA | animals that had developed terminal lymphoma (Eμ-Myc/eIF4E lymphomas): approximately 80% | reversal of DXR resistance / sensitization to DXR (Eμ-Myc/eIF4E lymphomas): reversed this drug resistance | reversal of DXR resistance / sensitization to DXR (Eμ-Myc/eIF4E lymphomas; listed as Silvestrol): sensitizes Eμ-Myc/eIF4E tumors to the effects of DXR | reversal of DXR resistance / sensitization to DXR (Eμ-myc/PTEN+/− tumors): reverse this drug resistance | reversal of DXR resistance / sensitization to DXR (Eμ-myc/PTEN+/− tumors; listed as Silvestrol): sensitizes PTEN^+/−Eμ-Myc tumors to the effects of doxorubicin

COc1cccc2c1C(=O)c1c(O)c3c(c(O)c1C2=O)C[C@@](O)(C(=O)CO)C[C@@H]3O[C@H]1C[C@H](N)[C@H](O)[C@H](C)O1 [DXR, doxorubicin]
tumor free and overall survival relative to control lymphomas (Eμ-myc/Akt lymphomas; Akt lymphomas, DXR 10 mg/kg i.p.): substantial reductions in tumor free and overall survival | whole body GFP imaging of tumors (Eμ-myc/Akt lymphomas; Akt-GFP secondary tumors, day 21 post treatment): sizable tumors at several sites | animals that had developed terminal lymphoma (Eμ-Myc/eIF4E lymphomas): approximately 80% | tumor response to therapy (Eμ-Myc/eIF4E lymphomas; eIF4E lymphomas): highly resistant to DXR therapy | tumor response to therapy (Eμ-myc/PTEN+/− tumors; DXR): resistant to DXR

O=P1(N(CCCl)CCCl)NCCCO1 (centres unmarked) [CTX, cyclophosphamide]
duration of remissions (Eμ-myc/Akt lymphomas; Akt lymphomas, CTX 300 mg/kg i.p.): less than 20 days | mice achieving remissions lasting more than 60 days (Eμ-myc/Akt lymphomas; Akt lymphomas, CTX 300 mg/kg, RAP 4 mg/kg x 5 d): none | complete remission [3]: invariably entered a complete remission | mice remaining tumor free after 100 days [3]: > 50%

COC(=O)[C@H]1[C@@H](OC=O)[C@@]2(O)c3c(OC)cc(OC)cc3O[C@@]2(c2ccc(OC)cc2)[C@@H]1c1ccccc1 [FA, 1-O-formylaglafoline]
IC50 (HeLa cells; 1 h incubation): ~0.1 µM | effect on ability of eIF4A to bind mRNA (eIF4A): stimulate the ability of eIF4A to bind mRNA
